Common to all, as to assay type: cell-based
For assay [1], the system named is Bacteria expressing Ambler Class B carbapenemases. Nature of the assay: Growth tests with chelating agents added to antibiotic. How it is done:
Non-limiting embodiments of detection tests for enteric and non-fermenting bacteria, with various concentration ranges of one or more antibiotics, and various concentration ranges for one or more inhibitors are shown in FIG. 1-FIG. 24 and FIG. 31. These figures illustrate the concentration of the antibiotic being tested (in μg/ml) along the x-axis (not every concentration is tested in every figure), and the amount of growth of bacteria in the sample in the y-axis. The boxes illustrate the median, interquartile range, non-outlier minimum and maximum; with asterisks representing single outliers. Each figure has a panel for Class A, Class B, and Class D producing bacteria, as well as a panel for non-carbapenemase producing bacteria (NEG). In some embodiments, the detection tests described herein are not performed by imaging a change in cell morphology.

The subject of another assay is K. pneumoniae 0047. Nature of the assay: Carbapenem MIC of study isolate. Particulars: Klebsiella pneumoniae, OmpK35.
Another assay concerns S. marcescens G153. Nature of the assay: Carbapenem MIC of study isolate. Particulars: Serratia marcescens, KPC.
For a further assay, the system named is E. cloacae G1735. Nature of the assay: Carbapenem MIC of study isolate. Particulars: Enterobacter cloacae.
For another assay, the system named is E. cloacae G1691. Nature of the assay: Carbapenem MIC of study isolate. Particulars: Enterobacter cloacae; IMP-8-producing E. cloacae G1691.
The next assay deals with E. cloacae 0032. The experiment in a line: Carbapenem MIC of study isolate. Particulars: Enterobacter cloacae, KPC-3, TEM-1.
A further assay relates to K. pneumoniae G1758. The experiment in a line: Carbapenem MIC of study isolate. Particulars: Klebsiella pneumoniae, CLSI MHT negative control.
The subject of the next assay is K. pneumoniae G158. Nature of the assay: Carbapenem MIC of study isolate. Particulars: Klebsiella pneumoniae, KPC-8.
For another assay, the system named is K. pneumoniae G1725. Nature of the assay: Carbapenem MIC of study isolate. Particulars: Klebsiella pneumoniae, KPC.
The subject of another assay is E. aerogenes G1614. The experiment in a line: Carbapenem MIC of study isolate. Particulars: Klebsiella aerogenes, High AmpC.
The subject of a further assay is K. pneumoniae G1675. The experiment in a line: Carbapenem MIC of study isolate. Particulars: Klebsiella pneumoniae, KPC-2, SHV-5-like.
The test system of another assay is P. aeruginosa G15557. The experiment in a line: Carbapenem MIC of study isolate. Particulars: VIM-like.
In a further assay the test system is K. oxytoca 0147. The experiment in a line: Carbapenem MIC of study isolate. Particulars: KPC.
Another assay has as its system K. pneumoniae 0042. Nature of the assay: Carbapenem MIC of study isolate. Particulars: Klebsiella pneumoniae, CTX-M-28, OmpK35, OmpK36.
For another assay, the system named is E. coli 0058. The experiment in a line: Carbapenem MIC of study isolate. Particulars: Escherichia coli, ESBL.
The next assay relates to P. aeruginosa G15019. Nature of the assay: Carbapenem MIC of study isolate.
A further assay has as its system K. pneumoniae 0043. Nature of the assay: Carbapenem MIC of study isolate. Particulars: Klebsiella pneumoniae, SHV-12, OmpK36.
Another assay relates to A. baumannii 0052. Nature of the assay: Carbapenem MIC of study isolate. Particulars: Acinetobacter baumannii, OXA-58.
For a further assay, the system named is P. mirabilis G1745. Nature of the assay: Carbapenem MIC of study isolate. Particulars: Proteus mirabilis, CMY, TEM-1-like.
In another assay the test system is A. baumannii G1734. Nature of the assay: Carbapenem MIC of study isolate. Particulars: Acinetobacter baumannii, OXA-40.
For a further assay, the system named is K. pneumoniae 0109. Nature of the assay: Carbapenem MIC of study isolate. Particulars: Klebsiella pneumoniae, CTX-M-15, TEM-1, SHV-1.
The subject of the next assay is E. coli G164. The experiment in a line: Carbapenem MIC of study isolate. Particulars: Escherichia coli, High AmpC (Table 2), SHV-12-like (Table 4.2).
Another assay relates to K. pneumoniae G1685. Nature of the assay: Carbapenem MIC of study isolate. Particulars: Klebsiella pneumoniae, CMY-2-like.
For the next assay, the system named is E. cloacae G1693. The experiment in a line: Carbapenem MIC of study isolate. Particulars: Enterobacter cloacae, IMP-8 (Table 4.1).
A further assay deals with E. coli 0119. Nature of the assay: Carbapenem MIC of study isolate. Particulars: Escherichia coli, NDM.
The next assay concerns E. coli 0137. The experiment in a line: Carbapenem MIC of study isolate. Particulars: Escherichia coli, NDM-6.
Another assay relates to E. coli G1693. The experiment in a line: Carbapenem MIC of study isolate. Particulars: Escherichia coli, High AmpC, S12like (Table 2), High AmpC (Table 4.2).
The subject of the next assay is K. pneumoniae G157. The experiment in a line: Carbapenem MIC of study isolate. Particulars: Klebsiella pneumoniae, KPC-8.
A further assay deals with P. mirabilis 0155. The experiment in a line: Carbapenem MIC of study isolate. Particulars: Proteus mirabilis, KPC.
In another assay the test system is K. pneumoniae 0113. The experiment in a line: Carbapenem MIC of study isolate. Particulars: Klebsiella pneumoniae, KPC-3.
Another assay has as its system E. coli 0086. The experiment in a line: Carbapenem MIC of study isolate. Particulars: Escherichia coli, CTX-M-9.
The test system of a further assay is K. ozaenae 0096. Nature of the assay: Carbapenem MIC of study isolate. Particulars: KPC.
Another assay deals with P. aeruginosa G15. The experiment in a line: Carbapenem MIC of study isolate. Particulars: Pseudomonas aeruginosa, KPC-5.
For a further assay, the system named is P. mirabilis G15185. Nature of the assay: Carbapenem MIC of study isolate.
The subject of a further assay is M. morganii G1751. The experiment in a line: Carbapenem MIC of study isolate. Particulars: Morganella morganii, High AmpC.
A further assay deals with E. aerogenes G1648. The experiment in a line: Carbapenem MIC of study isolate. Particulars: Klebsiella aerogenes, High AmpC.
For a further assay, the system named is P. mirabilis 0156. Nature of the assay: Carbapenem MIC of study isolate. Particulars: Proteus mirabilis, KPC.
The test system of the next assay is C. freundii G1706. Nature of the assay: Carbapenem MIC of study isolate. Particulars: Citrobacter freundii, KPC.
A further assay has as its system K. pneumoniae G1511. The experiment in a line: Carbapenem MIC of study isolate.
The test system of another assay is K. pneumoniae 0044. The experiment in a line: Carbapenem MIC of study isolate. Particulars: Klebsiella pneumoniae, CTX-M-15, TEM-1, SHV-1.
In a further assay the test system is K. oxytoca G1640. Nature of the assay: Carbapenem MIC of study isolate. Particulars: Klebsiella oxytoca, KPC.
In a further assay the test system is E. cloacae G1637. Nature of the assay: Carbapenem MIC of study isolate. Particulars: Enterobacter cloacae, High AmpC.
The test system of another assay is K. pneumoniae 0079. Nature of the assay: Carbapenem MIC of study isolate. Particulars: Klebsiella pneumoniae, CTX-M-14, OmpK35 (Table 4.2 also DHA-1).
The mark [2] stands for this setting: Pseudomonas aeruginosa, read-out: MIC.
[3] abbreviates: Klebsiella oxytoca, read-out: MIC.
Where [4] appears, read: Pseudomonas aeruginosa, VIM-2, read-out: MIC.
[5] abbreviates: Proteus mirabilis, IMP-27, read-out: MIC.
Where [6] appears, read: Klebsiella pneumoniae, KPC-4, read-out: MIC.

Like-named read-outs stand apart in the source and are kept apart here.

Regarding `O=C(O)c1cccc(C(=O)O)n1` [DPA, dipicolinic acid], the “concentration at which bacteria are sensitive” value in assay [1] (FIG. 9, FIG. 10, FIG. 21 and FIG. 22 (with MEM/CLOX or DOR/CLOX)) was 180 µg/mL.

In the case of `O=C(O)CN(CCN(CC(=O)O)CC(=O)O)CC(=O)O` [EDTA, ethylenediaminetetraacetic acid], the “concentration at which bacteria are sensitive” value in assay [1] (FIG. 3, FIG. 4, FIG. 15 and FIG. 16 (with TEM/CLOX or DOR/CLOX)) was determined as 250 µg/mL; in assay [1] (FIG. 5 and FIG. 6 (with TEM/CLOX)) it was 280 µg/mL.

For orientation: MIC means the lowest concentration found to suppress growth. For `C[C@@H](O)[C@H]1C(=O)N2C(C(=O)O)=C(S[C@@H]3CN[C@H](C(=O)Nc4cccc(C(=O)O)c4)C3)[C@H](C)[C@H]12` [Ertapenem], the MIC in the assay on K. pneumoniae 0047, in the assay with S. marcescens G153, in the assay with E. cloacae G1735, in the assay with E. cloacae G1691, with E. cloacae 0032 and with K. pneumoniae G1758 was over 1 µg/mL in each case. Besides, the minimal inhibitory concentration (MIC) in the assay with K. pneumoniae G158, in the assay with K. pneumoniae G1725, in the assay on E. aerogenes G1614, in the assay with K. pneumoniae G1675, in the assay on P. aeruginosa G15557 (setting [2]) and in the assay with P. aeruginosa G15557 (listed as ERT) was over 1 µg/mL throughout. In addition, the minimal inhibitory concentration (MIC) in the assay on K. oxytoca 0147 (listed as ERT) was over 1 µg/mL; in the assay on K. oxytoca 0147 (setting [3]), over 1 µg/mL; in the assay with K. pneumoniae 0042, over 1 µg/mL; in the assay with E. coli 0058, over 1 µg/mL; in the assay on P. aeruginosa G15019 (setting [4]), over 1 µg/mL; in the assay with P. aeruginosa G15019 (VIM-2, listed as ERT) it was over 1 µg/mL. For the same compound, the minimum inhibitory concentration (MIC) is over 1 µg/mL in the assay on K. pneumoniae 0043; over 1 µg/mL with A. baumannii 0052; at most 0.25 µg/mL with P. mirabilis G1745; over 1 µg/mL with A. baumannii G1734; over 1 µg/mL with K. pneumoniae 0109; over 1 µg/mL with E. coli G164. The minimum inhibitory concentration (MIC) in the assay with K. pneumoniae G1685 is over 1 µg/mL; in the assay with E. cloacae G1693, 0.5 µg/mL; with E. coli 0119, over 1 µg/mL; in the assay on E. coli 0137 it was over 1 µg/mL; in the assay on E. coli G1693, over 1 µg/mL; with K. pneumoniae G157, over 1 µg/mL. In addition, the MIC in the assay on P. mirabilis 0155 is over 1 µg/mL; with K. pneumoniae 0113 it was over 1 µg/mL; with E. coli 0086, over 1 µg/mL; with K. ozaenae 0096, over 1 µg/mL; in the assay on P. aeruginosa G15 it was over 1 µg/mL; in the assay with P. mirabilis G15185 (IMP-27, listed as ERT), over 1 µg/mL. The MIC was over 1 µg/mL in the assay with P. mirabilis G15185 (setting [5]); over 1 µg/mL in the assay on M. morganii G1751; over 1 µg/mL with E. aerogenes G1648; 0.5 µg/mL in the assay on P. mirabilis 0156; 1 µg/mL in the assay on C. freundii G1706; over 1 µg/mL in the assay with K. pneumoniae G1511 (KPC-4, listed as ERT). Further, the MIC with K. pneumoniae G1511 (setting [6]), with K. pneumoniae 0044, in the assay with K. oxytoca G1640, with E. cloacae G1637 and in the assay with K. pneumoniae 0079 was over 1 µg/mL throughout.

Turning to `C[C@@H](O)[C@H]1C(=O)N2C(C(=O)O)=C(SCCN=CN)C[C@H]12` [Imipenem], the MIC in the assay on K. pneumoniae 0047 is over 8 µg/mL; in the assay with S. marcescens G153 it was over 8 µg/mL; with E. cloacae G1735, over 8 µg/mL; with E. cloacae G1691, 4 µg/mL; in the assay with E. cloacae 0032, 4 µg/mL; in the assay on K. pneumoniae G1758 it was 4 µg/mL. For the same compound, the MIC with K. pneumoniae G158, in the assay on K. pneumoniae G1725, in the assay with E. aerogenes G1614, with K. pneumoniae G1675, in the assay on P. aeruginosa G15557 (setting [2]) and in the assay with P. aeruginosa G15557 (listed as IPM) was over 8 µg/mL in each case. The MIC with K. oxytoca 0147 (listed as IPM) was over 8 µg/mL; with K. oxytoca 0147 (setting [3]), over 8 µg/mL; in the assay with K. pneumoniae 0042, 1 µg/mL; in the assay with E. coli 0058 it was at most 0.25 µg/mL; in the assay on P. aeruginosa G15019 (setting [4]), over 8 µg/mL; in the assay with P. aeruginosa G15019 (VIM-2, listed as IPM), over 8 µg/mL. Also, the minimum inhibitory concentration (MIC) in the assay on K. pneumoniae 0043 is over 8 µg/mL; with A. baumannii 0052, over 8 µg/mL; with P. mirabilis G1745, 8 µg/mL; in the assay with A. baumannii G1734, over 8 µg/mL; in the assay on K. pneumoniae 0109, 4 µg/mL; in the assay on E. coli G164 it was over 8 µg/mL. In addition, the minimum inhibitory concentration (MIC) in the assay with K. pneumoniae G1685 is over 8 µg/mL; in the assay with E. cloacae G1693, 4 µg/mL; in the assay with E. coli 0119 it was over 8 µg/mL; in the assay with E. coli 0137, over 8 µg/mL; in the assay on E. coli G1693, over 8 µg/mL; in the assay with K. pneumoniae G157, over 8 µg/mL. The MIC was over 8 µg/mL with P. mirabilis 0155; over 8 µg/mL in the assay on K. pneumoniae 0113; over 8 µg/mL in the assay with E. coli 0086; over 8 µg/mL with K. ozaenae 0096; over 8 µg/mL with P. aeruginosa G15; 8 µg/mL in the assay on P. mirabilis G15185 (setting [5]). In addition, the minimum inhibitory concentration (MIC) is 4 µg/mL with M. morganii G1751; over 8 µg/mL in the assay with E. aerogenes G1648; 8 µg/mL in the assay with P. mirabilis 0156; 2 µg/mL in the assay with C. freundii G1706; 4 µg/mL in the assay on K. pneumoniae G1511 (setting [6]); over 8 µg/mL with K. pneumoniae 0044. The MIC in the assay with K. oxytoca G1640, in the assay on E. cloacae G1637 and in the assay on K. pneumoniae 0079 was over 8 µg/mL throughout.

(Values after patent US12234499B2, “Compositions, methods, systems and/or kits for detecting antimicrobial resistance in bacteria” (priority 2016, dated 2025).)
